{"source": "patent US10426775B2", "about": "“Methods for treating Friedreich's ataxia with etravirine” (Fratagene Therapeutics srl, priority 2017, dated 2019)", "tested_on": "GM16214 and GM16215 lymphoblasts", "test": "Cell viability (XTT) after H2O2 treatment of lymphoblasts", "assay_type": "cell-based, human", "settings": "500 nM etravirine 24 h", "method": "Cells were treated with etravirine 500 nM for 24 h, then transferred (40000 cells/100 ul/well) into 96-well tissue culture plates. Cultures were supplemented for 16 h with 12.5 μM, 25 μM and 50 μM H2O2 (Sigma-Aldrich). After H2O2 treatment, 1 mg/ml XTT (2,3-Bis-(2-Methoxy-4-Nitro-5-Sulfophenyl)-2H-Tetrazolium-5-Carboxanilide) (INVITROGEN™, Thermo Fisher Scientific, Waltham, Mass. USA) and 0.25% Phenazine methosulfate (PMS, Fisher Scientific, Thermo Fisher Scientific, Waltham, Mass. USA) were added (25 μL/well) and cells were incubated for additional 2 h. Results were expressed as the percentage of reduction of absorbance at 450 nm by calibration with the absorbance of the control (untreated) cells. […]\nFIGS. 6A to 6E show how etravirine functionally can rescue frataxin deficiency in FRDA patient cells. […] Cell extracts were resolved on SDS-PAGE and analysed by western blot with anti-frataxin antibody and anti-tubulin as a loading control. […] Aconitase activity was measured spectrophotometrically at 340 nm as described in the Methods section. Data represent the average of three (C) or five (D) independent experiments±S.E.M. p-values were calculated with Student's t-test (*p<0.05) E): Lymphoblasts derived from FRDA patient (GM16214) or from the unaffected carrier parent (GM16215), were either treated with 500 nM etravirine for 24 hrs or with vehicle only. […]", "data": [{"molecule": "Cc1cc(C#N)cc(C)c1Oc1nc(Nc2ccc(C#N)cc2)nc(N)c1Br", "note": "[etravirine]", "values": [{"measurement": "protection from H2O2-induced cell death", "setting": "GM16214 patient lymphoblasts, then 12.5, 25, 50 μM H2O2 for 16 h", "value": "significantly protects"}, {"measurement": "cell viability after H2O2 in healthy control cells upon etravirine treatment", "setting": "GM16215 lymphoblasts, then H2O2 for 16 h", "value": "no further improvement"}]}]}
